According to patent publication US7064145B2, “Inhibition of beta cell degeneration” (Novo Nordisk A/S, priority 2000, dated 2006):
Several values for one entry are separate records, joined by “and”; a condition that tells them apart may be missing. Equal values may be shown once. Ends that are not written are not given here.

Key:
[1] = test system: remnant and regenerated pancreatic tissue (beta cells); test: Pancreatic tissue regeneration, BrdU and insulin immunohistochemistry after 60% pancreatectomy; format: in vivo, Sprague-Dawley rats; parameters: key to Amount of regenerated tissue: The amount of regenerated tissue was scored on the following range: −, (+), +, ++, +++; The amount of regenerated tissue was scored on the following range: −, (+), +, ++, +++; The amount of regenerated tissue was scored on the following range: −, (+), +, ++, +++; The amount of regenerated tissue was scored on the following range: −, (+), +, ++, +++; The amount of regenerated tissue was scored on the following range: −, (+), +, ++, +++; settings: 20 mg/kg p.o. x2, day 4 to 8
Description: A 60% pancreatectomy was performed on a total of 12 male Sprague-Dawley rats. Vehicle and the DPP-IV inhibitor Val-Pyr was administered to 6 of these from day 4 to 8 in a dose of 20 mg/kg p.o. x2, while the remaining 6 rats were treated with vehicle alone.
The proliferation of beta cells was measured as incorporation of the thymidine analogue 5-bromo-2-deoxyuridine (BrdU) into DNA in insulin-positive cells. 8 days after the 60% pancreatectomy, 100 mg/kg BrdU was administered i.p. and 4 hours later the area containing remnant and regenerated pancreatic tissue was removed and processed for immunohistochemistry. Three adjacent sections from each animal were stained for insulin and BrdU. The amount of regenerated tissue was scored on the following range: −, (+), +, ++, +++. The location of BrDU was examined in regenerated pancreatic (reg) and exocrine (ex) tissue. Insulin staining was scored as weak (W), normal (N), and in regenerated tissue (+R).

[2] = Oral Glucose Tolerance Test (OGTT) at day 8 in 60% pancreatectomized rats; format: in vivo, Sprague-Dawley rats; settings: 20 mg/kg p.o. x2, day 4 to 8
[3] = test system: pancreatic islet cells from newborn rats; test: Beta cell proliferation in vitro (BrdU incorporation into DNA in insulin-positive cells); format: cell-based
Description: In our efforts to identify beta cell growth factors we discovered that GLP-1 indeed could stimulate beta cell proliferation in vitro. The proliferation was measured as incorporation of the thymidine analogue 5-bromo-2-deoxyuridine (BrdU) into DNA in insulin-positive cells in pancreatic islet cells from newborn rats.

Row | Compound | Animals with insulin expressed in islets located in the regenerating pancreatic tissue ([1]; vehicle alone 1 out of 6) | Amount of regenerated tissue ([1]; per animal, tissue removed 8 days after 60% pancreatectomy, 20 mg/kg) | Glucose excursion AUC after OGTT [2] | Number of labelled (BrdU) beta cells [3]
1 | CC(C)[C@H](N)C(=O)N1CCCC1 [Val-Pyr] | 5 out of 6 | + (5×) and ++ | ~50 % of vehicle | –
2 | GLP-1: insulinotropic hormone Glucagon like peptide-1 (HAEGTFTSDVSSYLEGQAAKEFIAWLVKGR; ends and bridges not checked; UniProt P01275 98-127, looked up) | – | – | – | increase the number of labelled beta cells
